# Values quoted from earlier work in patent US20240293300A1, “SKIN PENETRATION COSMETIC MATERIAL, AND SKIN PENETRATION COSMETIC MATERIAL PRODUCTION METHOD” (SHISEIDO COMPANY, LTD., priority 2021, published 2024).
# Where a SMILES comes first, the peptide text is derived from it.
# Conditions: 1-octanol/water partition coefficient
row,Molecule,Log P
1,"Cc1cc(C)nc(-n2nc(C)cc2C)n1.Cl [compound a, 2-(3,5-dimethylpyrazol-1-yl)-4,6-dimethyl pyrimidine hydrochloride]",1.36
2,N[C@@H](CCC(=O)O)C(=O)O [glutamic acid],−3.7
3,NCC(=O)NCC(=O)O [glycylglycine] (H-Gly-Gly-OH),−2.3
4,piperidine propionic acid,−2.06
